From patent US20250197374A1, “WEE1 DEGRADING COMPOUNDS AND USES THEREOF” (BRISTOL-MYERS SQUIBB COMPANY, priority 2023, published 2025)

How the values were obtained:
Format in all cases: cell-based
WEE1 = biological target: T1, WEE1 (Homo sapiens, UniProt P30291+Q96SW2); assay: WEE1-ePL degradation assay (293T-LentiX, InCELL Hunter luminescence, 4 hr); settings: for DC50: LentiX-HEK293T cells expressing WEE1-ePL, 4 hr incubation, read-out: 293T-LentiX WEE1-ePL Degradation 4 hr EC50; for 293T-LentiX WEE1-ePL Degradation 4 hr YMin (%): lower limit of fit, % of DMSO control signal remaining
T1 construct: C-terminal ePL-tagged (DiscoverX, Fremont, CA) full-length WEE1 expression construct; expressed in transfected cells; host or cells: LentiX-HEK293T (Invitrogen), lentivirally transduced; the cells also over-express GSPT1-GN
T1 sequence (P30291 whole entry): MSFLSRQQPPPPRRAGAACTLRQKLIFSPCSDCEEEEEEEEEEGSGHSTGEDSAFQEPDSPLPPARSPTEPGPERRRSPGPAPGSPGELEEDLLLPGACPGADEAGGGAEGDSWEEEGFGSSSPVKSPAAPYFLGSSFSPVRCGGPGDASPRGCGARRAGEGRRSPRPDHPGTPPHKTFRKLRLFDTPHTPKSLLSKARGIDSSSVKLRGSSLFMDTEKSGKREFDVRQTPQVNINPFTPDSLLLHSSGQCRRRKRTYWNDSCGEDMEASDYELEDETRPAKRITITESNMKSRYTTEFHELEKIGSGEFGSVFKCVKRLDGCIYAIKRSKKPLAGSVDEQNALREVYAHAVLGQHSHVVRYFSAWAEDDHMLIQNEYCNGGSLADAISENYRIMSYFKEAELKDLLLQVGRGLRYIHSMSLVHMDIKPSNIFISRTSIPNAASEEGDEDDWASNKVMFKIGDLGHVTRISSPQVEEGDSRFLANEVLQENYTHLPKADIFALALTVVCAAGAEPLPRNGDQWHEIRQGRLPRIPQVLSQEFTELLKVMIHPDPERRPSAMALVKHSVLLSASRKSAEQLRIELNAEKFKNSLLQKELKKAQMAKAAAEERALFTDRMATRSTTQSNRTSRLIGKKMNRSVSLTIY
T1 sequence (Q96SW2 whole entry): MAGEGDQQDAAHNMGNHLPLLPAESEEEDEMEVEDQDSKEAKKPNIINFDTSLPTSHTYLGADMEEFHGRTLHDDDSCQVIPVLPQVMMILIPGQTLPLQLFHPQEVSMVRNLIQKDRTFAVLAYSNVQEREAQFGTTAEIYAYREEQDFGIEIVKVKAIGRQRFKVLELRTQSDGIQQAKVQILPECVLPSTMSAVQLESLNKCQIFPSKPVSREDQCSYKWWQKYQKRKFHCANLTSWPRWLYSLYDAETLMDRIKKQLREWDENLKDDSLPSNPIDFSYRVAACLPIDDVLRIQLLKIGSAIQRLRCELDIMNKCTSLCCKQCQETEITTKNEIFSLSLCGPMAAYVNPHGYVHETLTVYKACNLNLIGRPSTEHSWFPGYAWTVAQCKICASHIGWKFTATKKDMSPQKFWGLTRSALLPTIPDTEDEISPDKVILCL
T1 sequence (Q16531 whole entry partner): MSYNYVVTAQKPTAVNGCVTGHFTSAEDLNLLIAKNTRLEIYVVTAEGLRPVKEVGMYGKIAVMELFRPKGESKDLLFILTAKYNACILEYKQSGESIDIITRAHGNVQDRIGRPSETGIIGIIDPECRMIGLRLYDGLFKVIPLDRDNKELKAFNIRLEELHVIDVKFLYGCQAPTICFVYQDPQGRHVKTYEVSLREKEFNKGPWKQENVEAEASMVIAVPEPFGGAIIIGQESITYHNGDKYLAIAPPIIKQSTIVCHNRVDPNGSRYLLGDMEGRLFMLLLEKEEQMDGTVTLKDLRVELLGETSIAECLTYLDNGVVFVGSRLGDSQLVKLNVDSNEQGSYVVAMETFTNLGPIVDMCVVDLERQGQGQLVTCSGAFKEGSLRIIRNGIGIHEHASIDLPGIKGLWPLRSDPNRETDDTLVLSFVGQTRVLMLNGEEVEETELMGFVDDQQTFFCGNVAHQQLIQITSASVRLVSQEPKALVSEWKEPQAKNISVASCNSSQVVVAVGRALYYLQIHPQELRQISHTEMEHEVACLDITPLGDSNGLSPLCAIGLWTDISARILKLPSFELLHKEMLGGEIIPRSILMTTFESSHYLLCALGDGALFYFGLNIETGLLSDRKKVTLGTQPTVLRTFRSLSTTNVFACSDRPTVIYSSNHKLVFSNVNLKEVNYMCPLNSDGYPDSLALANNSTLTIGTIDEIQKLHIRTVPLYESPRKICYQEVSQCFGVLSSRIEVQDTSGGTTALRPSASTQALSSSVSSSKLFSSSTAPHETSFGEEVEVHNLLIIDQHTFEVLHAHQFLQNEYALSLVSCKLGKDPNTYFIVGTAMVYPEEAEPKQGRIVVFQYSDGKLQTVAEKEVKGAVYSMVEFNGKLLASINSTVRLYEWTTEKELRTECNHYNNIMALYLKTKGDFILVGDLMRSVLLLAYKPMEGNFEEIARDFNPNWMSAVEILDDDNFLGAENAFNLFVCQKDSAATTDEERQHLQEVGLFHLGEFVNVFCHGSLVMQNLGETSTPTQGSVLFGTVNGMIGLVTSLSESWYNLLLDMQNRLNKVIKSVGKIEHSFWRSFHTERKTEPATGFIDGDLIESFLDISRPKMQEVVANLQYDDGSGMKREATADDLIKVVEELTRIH
Procedure, shortened: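 EC50 comes from a four-parameter logistic fit of ePL luminescence (InCELL Hunter), with DMSO control defining Ymax. Compounds ran as 10-point 3-fold dilutions from 1 or 10 µM for 4 h at 37 °C. Cells were HEK293T-LentiX with ePL-tagged full-length WEE1 and over-expressed Cereblon-resistant GSPT1-GN.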

MKN45 cells = assay: MKN45 cell proliferation assay (Cell-Titer-Glo, 120 hr); settings: for EC50: Homo sapiens, MKN-45, 120 h, read-out: MKN45 Cell Prolif. 120 hr EC50; for MKN45 Cell Prolif. 120 hr YMin (%): minimal percent of DMSO control observed
Procedure, shortened: (§1)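 Growth inhibition was read as CellTiter-Glo luminescence after 120 h at 37 °C in RPMI/10% FBS, with 400 MKN45 or 800 MDA-MB-231 cells seeded per well. Compounds were tested in 10-point half-log series starting at 1 or 10 uM (0.1% DMSO), in triplicate for MKN45 and duplicate for MDA-MB-231. EC50 values are four-parameter fits to %DMSO control, and Ymin-obs is the minimal observed %DMSO.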

MDA-MB-231 cells = assay: MDA-MB-231 cell proliferation assay (Cell-Titer-Glo, 120 hr); settings: for EC50: Homo sapiens, MDA-MB-231, 120 h, read-out: MDA-MB 231 Cell Prolif. 120 hr EC50; for MDA-MB 231 Cell Prolif. 120 hr YMin (%): minimal percent of DMSO control observed
Procedure, shortened: as §1

Row | DC50 (WEE1) [nM] | 293T-LentiX WEE1-ePL Degradation 4 hr YMin (%) (WEE1) | EC50 (MKN45 cells) [nM] | EC50 (MDA-MB-231 cells) [nM] | SMILES | MKN45 Cell Prolif. 120 hr YMin (%) (MKN45 cells) | MDA-MB 231 Cell Prolif. 120 hr YMin (%) (MDA-MB-231 cells)
1 | 4 | 29.8 | 18 | 18 | COC[C@@H]1CN(Cc2cc(F)c3nc(C(=O)N4CCOCC4)ccc3c2)C[C@H]1Oc1ccc2c(c1)CN([C@H]1CCC(=O)NC1=O)C2=O [Example 106, (3S)-3-(5-{[(3S,4S)-1-{[8-fluoro-2-(morpholine-4-carbonyl)quinolin-6-yl]methyl}-4-(methoxymethyl)pyrrolidin-3-yl]oxy}-1-oxo-2,3-dihydro-1H-isoindol-2-yl)piperidine-2,6-dione] | 11.5 | 50.8
2 | 2 | 25.6 | 5 | 45 | O=C1CC[C@H](N2Cc3cc(O[C@@H]4CN(Cc5ccc6nc(N7C[C@@H]8CCO[C@@H]8C7)ccc6c5)CC4(F)F)ccc3C2=O)C(=O)N1 (single isomer, unassigned) [Example 17, (S)-3-(5-(((R)-4,4-difluoro-1-((2-((3aS*,6aS*)-hexahydro-5H-furo[2,3-c]pyrrol-5-yl)quinolin-6-yl)methyl)pyrrolidin-3-yl)oxy)-1-oxoisoindolin-2-yl)piperidine-2,6-dione] | 13.2 | 47.2
3 |  | 30.1 | 1 | 122 | COC[C@@H]1CN(Cc2cc(F)c3nc(C4CN(CC(F)(F)F)C4)ccc3c2)C[C@H]1Oc1ccc2c(c1)CN([C@H]1CCC(=O)NC1=O)C2=O [Example 37, (3S)-3-(5-{[(3S,4S)-1-({8-fluoro-2-[1-(2,2,2-trifluoroethyl)azetidin-3-yl]quinolin-6-yl}methyl)-4-(methoxymethyl)pyrrolidin-3-yl]oxy}-1-oxo-2,3-dihydro-1H-isoindol-2-yl)piperidine-2,6-dione] | 11.0 | 6.3
4 |  | 18.7 |  | 26 | COC[C@@H]1CN(Cc2cc(F)c3nc(C45C6C7C4C4C5C6C74C(C)(C)O)ccc3c2)C[C@H]1Oc1ccc2c(c1)CN([C@H]1CCC(=O)NC1=O)C2=O (stereo partly drawn) [Example 121, (S)-3-(5-(((3S,4S)-1-((8-fluoro-2-(4-(2-hydroxypropan-2-yl)cuban-1-yl)quinolin-6-yl)methyl)-4-(methoxymethyl)pyrrolidin-3-yl)oxy)-1-oxoisoindolin-2-yl)piperidine-2,6-dione] | 7.5 | 13.2
5 | 1 | 40.7 | 87 | 234 | COC[C@@H]1CN(Cc2ccc3ccc(N4CCOCC4)nc3c2F)C[C@H]1Oc1ccc2c(c1)CN([C@H]1CCC(=O)NC1=O)C2=O [Example 105, (3S)-3-(5-{[(3S,4S)-1-{[8-fluoro-2-(morpholin-4-yl)quinolin-7-yl]methyl}-4-(methoxymethyl)pyrrolidin-3-yl]oxy}-1-oxo-2,3-dihydro-1H-isoindol-2-yl)piperidine-2,6-dione] | 83.4 | 91.5
6 | 1 | 29.3 | 1 | 28 | COC[C@@H]1CN(Cc2cc(F)c3nc(COC4CCOCC4)ccc3c2)C[C@H]1Oc1ccc2c(c1)CN([C@H]1CCC(=O)NC1=O)C2=O [Example 33, (3S)-3-(5-{[(3S,4S)-1-({8-fluoro-2-[(oxan-4-yloxy)methyl]quinolin-6-yl}methyl)-4-(methoxymethyl)pyrrolidin-3-yl]oxy}-1-oxo-2,3-dihydro-1H-isoindol-2-yl)piperidine-2,6-dione] | 9.7 | 28.6
7 | 1 | 22.1 | 3 | 61 | COC[C@@H]1CN(Cc2cc(F)c3nc(N4C[C@@H]5CCO[C@@H]5C4)ncc3c2)C[C@H]1Oc1ccc2c(c1)CN([C@H]1CCC(=O)NC1=O)C2=O (single isomer, unassigned) [Example 13, (S)-3-(5-(((3S,4S)-1-((8-fluoro-2-((3aS*,6aS*)-hexahydro-5H-furo[2,3-c]pyrrol-5-yl)quinazolin-6-yl)methyl)-4-(methoxymethyl)pyrrolidin-3-yl)oxy)-1-oxoisoindolin-2-yl)piperidine-2,6-dione] | 11.9 | 37.3
8 | 9 | 30.2 | 9 | 141 | COC[C@@H]1CN(Cc2cc(F)c3nc(C4CN(C(C)=O)C4)ccc3c2)C[C@H]1Oc1ccc2c(c1)CN([C@H]1CCC(=O)NC1=O)C2=O [Example 36, (3S)-3-(5-{[(3S,4S)-1-{[2-(1-acetylazetidin-3-yl)-8-fluoroquinolin-6-yl]methyl}-4-(methoxymethyl)pyrrolidin-3-yl]oxy}-1-oxo-2,3-dihydro-1H-isoindol-2-yl)piperidine-2,6-dione] | 10.5 | 32.4
9 | 1 | 32.3 | 29 | 5 | COC[C@@H]1CN(Cc2cc(F)c3cc(N4CCOCC4)cnc3c2)C[C@H]1Oc1ccc2c(c1)CN([C@H]1CCC(=O)NC1=O)C2=O [Example 103, (3S)-3-(5-{[(3S,4S)-1-{[5-fluoro-3-(morpholin-4-yl)quinolin-7-yl]methyl}-4-(methoxymethyl)pyrrolidin-3-yl]oxy}-1-oxo-2,3-dihydro-1H-isoindol-2-yl)piperidine-2,6-dione] | 28.5 | 82.3
10 | 1 | 28.7 | 1 | 31 | COC[C@@H]1CN(Cc2cc(F)c3nc(N4CCOC5(CC5)C4)ncc3c2)C[C@H]1Oc1ccc2c(c1)CN([C@H]1CCC(=O)NC1=O)C2=O [Example 79, (3S)-3-(5-{[(3S,4S)-1-[(8-fluoro-2-{4-oxa-7-azaspiro[2.5]octan-7-yl}quinazolin-6-yl)methyl]-4-(methoxymethyl)pyrrolidin-3-yl]oxy}-1-oxo-2,3-dihydro-1H-isoindol-2-yl)piperidine-2,6-dione] | 9.9 | 17.9
11 |  | 31.2 | 1 | 11 | COC[C@@H]1CN(Cc2cc(F)c3nc(N4CCC45COC5)ccc3c2)C[C@H]1Oc1ccc2c(c1)CN([C@H]1CCC(=O)NC1=O)C2=O [Example 75, (3S)-3-(5-{[(3S,4S)-1-[(8-fluoro-2-{6-oxa-1-azaspiro [3.3]heptan-1-yl}quinolin-6-yl)methyl]-4-(methoxymethyl)pyrrolidin-3-yl]oxy}-1-oxo-2,3-dihydro-1H-isoindol-2-yl)piperidine-2,6-dione] | 10.1 | 56.6
12 | 22 | 30.3 | 10 | 151 | COC[C@@H]1CN(Cc2cc(F)c3nc(C(C)(C)O)ncc3c2)C[C@H]1Oc1ccc2c(c1)CN([C@H]1CCC(=O)NC1=O)C2=O [Example 41, (3S)-3-(5-{[(3S,4S)-1-{[8-fluoro-2-(2-hydroxypropan-2-yl)quinazolin-6-yl]methyl}-4-(methoxymethyl)pyrrolidin-3-yl]oxy}-1-oxo-2,3-dihydro-1H-isoindol-2-yl)piperidine-2,6-dione] | 12.5 | 39.1
13 | 1 | 32.3 | 1 | 12 | COC[C@@H]1CN(Cc2ccc3nc(N4C[C@H]5CCO[C@H]5C4)ccc3c2)C[C@H]1Oc1ccc2c(c1)CN([C@H]1CCC(=O)NC1=O)C2=O (single isomer, unassigned) [Example 5, (S)-3-(5-(((3S,4S)-1-((2-((3aR*,6aR*)-hexahydro-5H-furo[2,3-c]pyrrol-5-yl)quinolin-6-yl)methyl)-4-(methoxymethyl)pyrrolidin-3-yl)oxy)-1-oxoisoindolin-2-yl)piperidine-2,6-dione] | 10.6 | 45.5
14 | 1 | 21.9 | 1 | 69 | COC[C@@H]1CN(Cc2cc(F)c3nc(N4CCN(C(C)=O)C5(COC5)C4)ccc3c2)C[C@H]1Oc1ccc2c(c1)CN([C@H]1CCC(=O)NC1=O)C2=O [Example 93, (3S)-3-(5-{[(3S,4S)-1-[(2-{5-acetyl-2-oxa-5,8-diazaspiro[3.5]nonan-8-yl}-8-fluoroquinolin-6-yl)methyl]-4-(methoxymethyl)pyrrolidin-3-yl]oxy}-1-oxo-2,3-dihydro-1H-isoindol-2-yl)piperidine-2,6-dione] | 7.9 | 52.5
